Experimental data as given in patent publication US12503448B2, “Antibacterial and antiparasitic quinoxaline-2,3-diamine derivatives” (University College Cardiff Consultants Limited, priority 2019, dated 2025).
≈ marks a conversion by molar mass, not a printed value. Read-outs that look alike come from different tables or passages of the source.

Columns and labels:
S. mansoni schistosomula = test: 72 hours schistosomula drug screen; type: cell-based, Schistosoma mansoni; details: for Selectivity Index Schistosomula: HepG2 CC50 over schistosomula EC50; for EC50: Schistosoma mansoni
Procedure: Biological Screening 72 Hours Schistosomula Drug Screen […] G. Colley, […], Schistosoma mansoni: simplified method for the production of schistosomules., Exp. Parasitol. 35 (1974) 44-51. Newly transformed schistosomula were prepared for 72 hour high throughput screening (HTS) in 384-well black-sided microtiter plates (Perkin Elmer, MA, USA) as described in M. Nur-e-alam, M. Yousaf, […]. Bari, H. A. Ghabbour, […]. Ho, A. J. […], Neoclerodane Diterpenoids from […], Teucrium […]. Nat. […] The data obtained in this manner is shown in Table 1 in the columns labelled “Phenotype”, “Motility” and “Schistosomula average”.

S. mansoni adult worms = test: Adult worm drug screen (WHO scoring, WormassayGP2); type: cell-based, Schistosoma mansoni
Description: Mice (MF-1 mice, Harlan, UK), infected 7 weeks previously with 180 cercaria, were euthanised with an intraperitoneal injection of phenobarbital/heparin solution. Adult worms were recovered by perfusion of the portal system and subjected to drug screening as previously described in Padalino G, Ferla S, Brancale A, Chalmers I W, Hoffmann K F. Int J Parasitol Drugs Drug Resist. 2018 December; 8(3):559-570; in Whiteland H L, Chakroborty A, Forde-Thomas J E, Crusco A, Cookson A, Hollinshead J, Fenn C A, Bartholomew B, Holdsworth P A, Fisher M, Nash R J, Hoffmann K F. Int J Parasitol Drugs Drug Resist. 2018 December; 8(3):465-474; and in Crusco A, Bordoni C, Chakroborty A, Whatley K C L, Whiteland H, Westwell A D, Hoffmann K F. Eur J Med Chem. 2018 May 25; 152:87-100. The data obtained in this manner is shown in Table 1 in the columns labelled “Adult worm”.
Regarding the quantification of drug treatment on adult worms (e.g. decreased activity, paralysis or sluggishness), two different approaches were used, as described below. Where egg deposition was noticed, eggs were removed and counted using a Sedgewick rafter slide.
Adult worms were scored using the standardized microscopic WHO-TDR scoring system previously described by Ramirez, B., Bickle, Q., Yousif, F., Fakorede, F., Mouries, M.-A., Nwaka, S. in Schistosomes: Challenges in compound screening, Expert Opin Drug Discov. 2007 October; 2(s1): S53-61. This scoring system (0-4) identifies changes in worm movement and is defined according to the following scoring matrix: 0=no movement, 1=no movement with visible gut peristalsis, 2=minimal movement (occasional movement from anterior or posterior end of the worm), 3=slow continuous movement and 4=normal movement.
A digital image processing-based system was also used to assess parasite motility after drug treatment and is a modification of methods previously described by Marcellino C., Gut, J., Lim, K., Singh R., McKerrow, L. and Sakanari, J. WormAssay: a novel computer application for whole-plate motion-based screening of macroscopic parasites. PLoS Negl Trop Dis. 2012 January:6(1):e1494. This allowed for objective verification of the WHO method described above. The data obtained with this quantification method is shown in Table 1 in the columns labelled “Adult worm”.

MTT assay on HepG2 cells = type: cell-based; details: human
Procedure: MTT Assay on HepG2 Cells Human Hepatocyte Carcinoma (HepG2) cells (85011430, Sigma Aldrich) were used to assess the overt toxicity of these anti-infective compounds. […] A negative control (1% v/v Triton X-100; X100, Sigma-Aldrich) was also included in each screen. After addition of compounds, each plate was then incubated for a further 20 hrs before application of MTT reagent (prepared as described in Nur-[…], Bari A, Ghabbour […], Hoffmann […] Nat Prod. 2017 Jun. 23; 80(6):1900-1908 for the assessment of compound cytotoxicity using the MTT assay. […] The plate was then further incubated for 4 hrs. After incubation, each plate was blotted dry under the laminar flow to remove the MTT treated culture media. A 100 μl DMSO: isopropanol (1:1) solution was then added to each well and the plate was then subsequently incubated for 10 minutes at 37° C. Following incubation, each plate was shaken again and then absorbance measured at 570 nm. The absorbance reading was corrected based on the average value of the wells used as blank (no cells). […] The data obtained in this manner is shown in Table 1 in the columns labelled “HepG2”. […] The selectivity indexes for schistosomula and adult worms are shown in the final two columns in Table 1.

[1] = tested on: F. hepatica newly excysted juveniles (NEJs); test: Newly excysted juveniles (NEJs) drug screen; type: cell-based, Fasciola hepatica; set-up: scale not given here; details: 10 μM, 72 h; higher score indicates lower worm activity
Procedure: Newly Excysted Juveniles (NEJs) Drug Screen
F. hepatica (Italian strain) metacercariae were obtained from Ridgeway Research, Gloucestershire, UK and stored at 4° C. Newly excysted juveniles (NEJs) from metacercariae were produced based on an optimisation introduced to the excystment method published by Dixon et al. and Wilson et al (Dixon, K. E., The physiology of excystment of the metacercaria of Fasciola hepática L. Parasitology, 1966, 56, 431-456.; Wilson, L. R., Good, R. T., Panaccio, M., Wijffels, G. L., Sandeman, R. M., Spithill, T. W, Fasciola hepatica: Characterization and Cloning of the Major Cathepsin B Protease Secreted by Newly Excysted Juvenile Liver Fluke. Experimental Parasitology 1998, 88, 85-94).
After excystment, NEJs were distributed into a 24 well tissue culture plate at a density of 25 parasites per well containing 1 mL of pre-warmed NEJs culture media. Compounds were added to respective wells and NEJ/compound co-cultures were incubated at 37° C. in an atmosphere containing 5% CO2 for 72 hours at a final concentration of 10 μM.
F. hepatica NEJs (25 per well) were incubated with the three compounds at a concentration of 10 μM (in 0.1% DMSO) and cultured for 72 hrs at 37° C. in an atmosphere containing 5% CO2. Control wells (25 NEJs per well) included those containing 0.1% DMSO (solvent) and RMPI (media) as negative controls or 10 μM Triclabendazole (0.1% DMSO, as positive control, labelled “Tbz” (Comp. 3). After 72 hrs, all NEJs were scored for phenotype and motility metrics. For each treatment, an average of both phenotype and motility score was calculated based on the individual parasite scores (across two independent replicates), wherein a higher score indicates lower worm activity. SD is reported on the bar chart.

H3K4 methylation = test: Histone extraction and detection of global H3K4 methylation in treated adult worms; type: cell-based, Schistosoma mansoni; details: sub-lethal concentration 0.0024 μM, male and female adult worms
[2] = Mouse pharmacokinetics, oral cassette dosing; details: for AUC(0-t) / Cmax / MRT last / Tmax: male, C57/BL6, mouse, plasma, po, 2.5 mg/kg; for Tlast: oral, nominal dose 2.5 mg/kg, cassette
Procedure: Non-compartmental mouse pharmacokinetics (Male C57/BL6 Mouse, Fasted; 3 mice per group) were determined after oral administration of a nominal dose of 2.5 mg/kg of these formulations in cassettes (5 compounds/group) according to the protocols employed by WuXi (https://www.wuxiapptec.com; the CRO that conducted these studies).

[3] = Semi thermodynamic solubility; details: thermodynamic from solid
[4] = Metabolic stability in mouse liver microsomes; details: liver microsomes
in vitro = details: plasma
Schistosoma mansoni = test: Anti-schistosomal in vivo efficacy screen (murine model of schistosomiasis); details: 100 mg/kg oral, two doses (day 1 and day 3), mice
Procedure: Anti-Schistosomal in vivo Efficacy Screen
An anti-schistosomal efficacy trial of the compounds described herein was conducted on a murine model of Schistosomiasis using the following procedure. Schistosoma mansoni cercaria were prepared from infected Biomphalaria glabrata snails by inducing synchronous shedding upon exposure to light for 40 minutes (in artificial pond water). […] A maximum of 6 mice were housed in a cage for the duration of the 7-week infection.
At 6 wks post infection (Day 42 post infection), mice were dosed with anthelmintic chemicals using autoclaved gavage needles for oral delivery. The gavage needle was dipped into a concentrated solution of sucrose (approx. 1 g/ml) before dosing as a refinement measure to reduce stress-related reactions.
For oral dosing, the compounds (dry powder) were weighed and prepared in an appropriate excipient (e.g. 10% DMSO, 20% Kolliphor EL and 70% sterile water). […]
At the end of the treatment (on day 48 post-infection), mice were perfused after receiving an intra-peritoneal administration of non-recoverable dose of sodium pentobarbital (100 μl/10 g body weight) containing 100 U/ml heparin solution (in 1×PBS). […] After incubation in a humidified environment containing 5% CO2 at 37° C. for at least 1 h, the quantification of worm burden per each mouse of each treatment was performed. […]

[5] = average of phenotype and motility, read-out: EC50 Schistosomula average
[6] = schistosomula, 72 hour culture, read-out: EC50 Motility
[7] = schistosomula, 72 hour culture, read-out: EC50 Phenotype

Compound	Selectivity Index Schistosomula (S. mansoni schistosomula)	EC50 (S. mansoni schistosomula; [5]) [nM]	EC50 (S. mansoni schistosomula; [6]) [nM]	EC50 (S. mansoni schistosomula; [7]) [nM]	Motility (M) Mean score [1]	Phenotype (P) Mean score [1]	AUC(0-t) [2] [ng·h/mL]	Cmax [2] [ng/mL]	MRT last [2] [h]	Tmax [2] [h]	Tlast [2] [h]	solubility thermodynamic [3] [µM]	half-life at 1 μM [4] [h]	microsomal CLint at 1 μM [4] [µL/min/mg]	also measured
O=[N+]([O-])c1ccc2nc(Nc3cc(C(F)(F)F)ccc3F)c(Nc3cc(C(F)(F)F)ccc3F)nc2c1 [Compound 9, N^2, N^3-bis(2-fluoro-5-(trifluoromethyl)phenyl)-6-nitroquinoxaline-2,3-diamine]	223	480	470	480	3.68	4.63	337	79.3	4.22	4	8.00	6.95 (≈ 3.68 µg/mL)	1.45	16	Selectivity Index Adult (S. mansoni adult worms; HepG2 CC50 over adult worm EC50): 29464; EC50 (S. mansoni adult worms; Schistosoma mansoni, adult worms): 3.6 nM; CC50 at 24 h (MTT assay on HepG2 cells): 106000 nM; global H3K4 methylation compared to the negative control (DMSO) (H3K4 methylation): significant % decrease
CC(=O)CC(c1ccccc1)c1c(O)c2ccccc2oc1=O (stereo not drawn) [Warfarin, reference compound]	–	–	–	–	–	–	–	–	–	–	–	> 100	–	–	fraction unbound (in vitro): 0.0727
O=[N+]([O-])c1ccc2nc(Nc3ccc(Cl)cc3)c(Nc3ccc(Cl)cc3)nc2c1 [Compound 4, N^2, N^3-bis(4-chlorophenyl)-6-nitroquinoxaline-2,3-diamine]	28	470	530	400	4.71	5.13	436	90.4	4.25	3.33	8.00	12.7 (≈ 5.41 µg/mL)	2.52	9.18	reduction in worm burden in vivo compared to the vehicle (Schistosoma mansoni): 35.5%; reduction in egg count in vivo compared to the vehicle (Schistosoma mansoni; liver eggs): 39.9%
